In US11841361B2, “Microfluidic proximal tubule kidney-on-chip” (EMULATE, INC., priority 2019, dated 2023):

Legend:
[1] = test system: P-gp (digoxin); MATE1/MATE2-K (metformin); OAT1 (PAH); test: in vitro
[2] = Prediction of clearance versus clinical values; details: proximal tubule Kidney chip
[3] = Creatinine and PAH secretion/transport in PT Kidney-Chip; type: in vitro ADME, human; details: human, Proximal Tubule Kidney-Chip; read-out: recovery of compound in the chip
Protocol: (§1) To measure creatinine secretion in the Proximal Tubule Kidney-Chip, the vascular compartment is perfused with medium containing 1 mg/dL of human creatinine, while the secretion of creatinine in the top channel is measured from chip effluent. Exemplary assay flow rate (Proximal Tubule Kidney-Chip) during this assays is 60 μL/hour. In some embodiments, samples of effluent are collected in outlet reservoirs of the module. In preferred embodiments, there is no dilution of effluent when using an exemplary commercial kit, e.g. Invitrogen™ Creatine Urinary Detection Kit (Thermo Fisher EIACUN as described at thermofisher.com, downloaded Jun. 20, 2019).
(§2) In some embodiments, creatinine transport is determined in relation to chip configuration and low vs. high flow. Creatinine Secretion: Creatinine Loss (BI-BO); Creatinine filtration (TO/BO); Apical Creatinine (TO).
(§3) After activation, S1 (tall channel) chips and high shear chips are coated with Emulate ECM (i.e. Col IV+ Matrigel) on the side of the membrane (typically the top channel) intended for seeding with PT Kidney Cells. For monocultures, proximal tubular cells are seeded into the channel with the ECM coated membrane. For co-culturing PT Kidney Cells (system), glomerular microvascular endothelial cells are seeded on bottom channel and incubated for overnight. The following day, proximal tubular cells are seeded into the top channel (where the membrane is coated with ECM) and cultured for 2 days under static conditions, i.e. no fluid flow. Chips will be connected to a culture module at day 3 along with starting flow at 150 ul/h for both channels. Media should be replenished daily. At day 7, PAH and Creatinine will be dosed Apically under a 150 ul/h flow rate then A to B transport will be measured. Initial collection (after 2 hours) will be discard and during the following 22 hours effluent fluid (media) will be collected at desired times for measurements. At day 8, PAH and Creatinine will then be dosed Basally at 150 ul/h flow rate and B to A transport will be measured. Initial collection during 2 hours will be discarded and over the following 22 hours, the media will be collected for measurement. At day 9, the chip will be return to culture mode and cultured for additional […]. At day 14 PAH and Creatinine will be dosed Apically at 150 ul/h flow rate and A to B transport will be measured. Initial collection (2 hours) will be discard and during the following 22 hours the media will be collected for measurement. At day 15, PAH and Creatinine will be dosed Basally at 150 ul/h flow rate and B to A transport will be measured. Initial collection during 2 hours will be discarded and the following 22 hours, the media will be collected for measurement.

[4] = test system: Proximal Tubule Kidney-Chip; test: as above; type: in vitro ADME, human; details: for mass balance: compound loss (inlet/outlet) in chip system / active transport (B-A versus A-B transport): S1 and HS chips; for active transport (B-A versus A-B transport): Day 8 and Day 15
Protocol: as §1, §2, §3

in vitro = details: human
Protocol: (§4) Additional transporter Tier 1 test substrates/substances include but are not limited to: 1. […] TEA; 4. PAH; 5. Estrone-3-sulfate (E3S); 6. Glycylsarcosine. In some embodiments, microfluidic devices are treated with a substance followed by a 30 minute flushing cycle. In some embodiments, microfluidic devices under go 100 ul/hr of flow during transported function measurements.
(§5) Permeability from the vascular (V) to luminal (L) direction (Papp(V−L)) and permeability from the luminal to vascular direction (Papp(L−V)) were determined along with calculating the efflux ratio (Papp(V−L)/PapP(L−V)). […] However, the values were included in the calculations to calculate the efflux ratio.

[5] = Material absorption into Kidney-Chip and perfusion manifold materials; type: physicochemical; details: REGM serum-free medium; 1-72 hr; glass control
From the text: In some embodiments, Material Absorption is one exemplary readout. When testing compounds added to a PT Kidney Chip, a determination of material absorption is made for that compound. The following is a exemplary method for determining material adsorption of a compound.
Study Conditions. Study approach: Each experiment includes a number of controls and test conditions. These allow us to tease out: Adsorption to the vial/well-plate. Absorption vs. adsorption to the tested material.
• 1. Dissolve the small molecule in an aqueous phase (medium) and incubate it with the tested material. • 2. Measure the concentration of small molecule remaining in the aqueous phase (using mass spec, plate reader). • 3. Curve-fit the measured data to quantify the absorption and diffusion parameters.

[6] = test system: proximal tubular epithelium; test: Nephrotoxicity testing in Proximal Tubule Kidney-Chip; type: cell-based, human
OCT1/MATE1/MATE2-K = test: in vitro; details: human, Kidney-Chip (Proximal Tubule), probe TEA
From the text: (§6) Substrates for transporters are termed “victim”.

OCT2/MATE1/MATE2-K = test: in vitro; details: human, Kidney-Chip (Proximal Tubule), probe Meformin (so in the source); metformin)
From the text: as §6

PT Kidney-Chip = test: Barrier function: inulin leakage in PT Kidney-Chip; type: in vitro ADME, human; details: inulin added to apical channel
[7] = test system: Transwell kidney cell cultures; test: Efflux ratio of probe substrates in Transwell cultures; details: no inhibitor
[8] = test system: Proximal Tubule Kidney-Chip; test: Efflux ratio / permeability of probe substrates in Proximal Tubule Kidney-Chip
Protocol: as §4, §5

Compound: Nc1ccc(C(=O)NCC(=O)O)cc1 [PAH, p-aminohippuric acid]
- efflux ratio [1]: 1.37
- predicted clearance value as % of clinical value [2]: 72%
- recovery [3]: ~100%
- mass balance: compound loss (inlet/outlet) in chip system [4]: No significant PAH loss
- active transport (B-A versus A-B transport) [4]: significant active transport
- PAH loss (BI-BO) ([4]; bottom channel): 20 to 40 µg/mL
- PHA transport (TO/BO) ([4]; low flow): about 20%
- efflux ratio (in vitro; Kidney-Chip Efflux Ratio): 4.84
- efflux ratio (in vitro; efflux ratio): 2.4 to 2.7

Compound: CCCN(CCC)S(=O)(=O)c1ccc(C(=O)O)cc1 [Probenecid]
- reduction of creatinine secretion ([4]; S1 chip, inhibitor incubated 3 hours, trend, statistically not significant): 10%

Compound: Nc1ncnc2c1ncn2CCOCP(=O)(O)O [Adefovir]
- predicted clearance value as % of clinical value [2]: 85%
- efflux ratio (in vitro; Kidney-Chip Efflux Ratio): 2.01

Compound: C[C@H]1O[C@@H](O[C@H]2[C@@H](O)C[C@H](O[C@H]3[C@@H](O)C[C@H](O[C@H]4CC[C@@]5(C)[C@H](CC[C@@H]6[C@@H]5C[C@@H](O)[C@]5(C)[C@@H](C7=CC(=O)OC7)CC[C@]65O)C4)O[C@@H]3C)O[C@@H]2C)C[C@H](O)[C@@H]1O [Digoxin]
- absorption into system materials (chip material, perfusion manifold material) [5]: Minimal absorption

Compound: CCCCC(=O)N(Cc1ccc(-c2ccccc2-c2nnn[nH]2)cc1)[C@H](C(=O)O)C(C)C [Valsartan]
- absorption into system materials (chip material, perfusion manifold material) [5]: Minimal absorption

Compound: Gentamicin
- LDH in medium effluent ([6]; 10 mM, 48 hours): significant increase
- N-acetyl-beta-(D)-glucosaminidase activity (NAG) in medium effluent ([6]; 10 mM, 48 hours): significant increases
- TUNEL assay ([6]; 10 mM, 48 hours): significant DNA damage
- active caspase-3 in cells lysates ([6]; 10 mM, 48 hours): increase
- microscopic analysis of the proximal tubular epithelium ([6]; 10 mM, 48 hours): structural damage
- reactive oxygen species (ROS) ([6]; 10 mM, 48 hours): significant increases
- Morphology ([6]; dosing at Day 7 for 24 h, Gentamicin 10 mM, Cisplatin 100 μM): Damaged

Compound: CN/C(=N/CCSCc1nc[nH]c1C)NC#N [Cimetidine]
- IC50 (OCT1/MATE1/MATE2-K): 3.16 µM
- IC50 (OCT2/MATE1/MATE2-K): 4.41 µM
- reduction of PAH secretion ([4]; S1 chip, trend, statistically not significant): 10%

Compound: inulin
- Inulin leakage into the basal channel (PT Kidney-Chip): no significant inulin leakage

Compound: CN1CC(=O)NC1=N [Creatinine, 2-amino-1-methyl-5H-imadazol-4-one]
- recovery [3]: ~100%
- mass balance: compound loss (inlet/outlet) in chip system [4]: No significant creatinine loss
- active transport (B-A versus A-B transport) [4]: significant active transport
- Creatinine loss (BI-BO) ([4]; bottom channel): 2.5 to 4 mM
- creatinine filtration (TO/BO) ([4]; low flow): About 50%

Compound: CC[C@@]1(O)C(=O)OCc2c1cc1n(c2=O)Cc2cc3c(CN(C)C)c(O)ccc3nc2-1 [Topotecan]
- absorption into system materials (chip material, perfusion manifold material) [5]: Minimal absorption

Compound: CC[N+](CC)(CC)CC [TEA, Tetraethylammonium]
- Transwell Efflux Ratio [7]: 1.11+/−0.06
- Kidney-Chip Efflux Ratio ([8]; no inhibitor): 6.95+/−0.60
- efflux ratio ([8]; transport studies comparing different flow rates, conditions tested): > 2

Compound: C[C@]12CC[C@@H]3c4ccc(OS(=O)(=O)O)cc4CC[C@H]3[C@@H]1CCC2=O [Estrone-3-sulfate]
- absorption into system materials (chip material, perfusion manifold material) [5]: Minimal absorption

Compound: CN(C)C(=N)N=C(N)N [Metformin]
- efflux from the vascular channel to the luminal channel ([8]; day 8, S1 chip, 30 μL/hr, time-dependent): significant efflux
